Reference: patent US5137720A, “Antiviral combination, and method of treatment” (Ciba-Geigy Corporation, priority 1988, dated 1992)

Experiments:
[1] = system: rat alveolar macrophages; assay: In vitro alveolar macrophage-mediated cytotoxicity against MADB-200 tumor cells (crystal violet); format: cell-based; conditions: interferon 0
Protocol: Macrophage-mediated cytotoxicity was assessed against syngeneic MADB-200 adenocarcinoma target cells available from the American Type Culture Collection, ATCC. These cells were maintained as monolayer cultures in MEM supplemented with 10% fetal calf serum. Cultures were maintained at 37° C. in a humidified atmosphere containing 5% CO2. Cultures were routinely tested for the presence of mycoplasma.
Alveolar macrophages (AM) were collected by transtracheal lavage (Brownbill and Schumann, Cancer Immunol. Immunother. 20, 11-17, 1985). The cells recovered from lavage fluids were centrifuged at 400× g for 10 minutes, suspended in serum-free medium, and plated into 96-well Microtest II plastic tissue culture dishes at 5×10^4 cells per well. After incubation for 60 minutes, cells were washed with HBSS to remove non-adherent […].
Purified cultures of rat alveolar macrophages were incubated at 37° C. for 1 hour with 0.2 ml of control medium, recombinant alpha B1 D2 B3 B4, MTP-PE, or a combination of alpha B1 D2 B3 B4 and MTP-PE. To these treated cells, 5×10^3 MADB-200 tumor cells were added and allowed to incubate for 72 hours at 37° C. Thus, 50,000 macrophages were incubated with 5000 tumor cells.
A colorimetric assay using crystal violet staining of remaining MADB-200 tumor cells was used to determine macrophage cytotoxicity (Brownbill and Schumann, Cancer Immunol. Immunother. 20, 11-17, 1985). Briefly, following incubation, wells are washed with HBSS and the remaining cells fixed with formalin and stained with crystal violet. Each well is thoroughly washed after staining, the cells decolorized with alcohol, and the extract read with a colorimeter. The % cytotoxic activity of alveolar macrophages was calculated as follows: [formula]

[2] = system: HSV-2/MS; assay: Herpes genitalis in the guinea pig, local lesion scores; format: in vivo, guinea pigs of the Pirbright strain
Protocol: Female albino guinea-pigs of the Pirbright strain, weighing 200-300 g, are infected intravaginally after gentle opening of the introitus vaginae with a forceps. Thereafter, pieces of fibrin foam (SEVAC, Prague) measuring 5×5×4 mm are impregnated with 0.05 ml containing about 10^4 PFU of HSV 2/MS from cultures in HEL. These pieces are introduced intravaginally (1-2). The animals are kept in groups of 4-5 in type 4 Macrolon cages.
Three days after infection, by which time the local symptomatology scores (see below) range from 3 to 6 in about 90% of the animals, these animals are divided at random into groups of 10-15 per preparation and untreated control. Treatment is started 72 hours after infection and administered twice daily for 5 days. One tenth of a milliliter is applied intravaginally and 0.1 ml extravaginally.
From the 3rd day onwards, the local symptoms are evaluated thrice weekly. The criteria applied in assessing the therapeutic effects of treatment are the rate and the degree of regression of overt signs of infection in the individual animals. The degree and severity of local symptoms are scored according to the following points system:
The number indicated in the following Table of female albino guinea pigs of the Pirbright strain (150-180 g body weight) are infected intravaginally with ~10^4 PFU (plaque-forming units) of herpes simplex type 2 virus, cultivated in HEL (human embryonal lungs) cells, as described in B. Lukas et al., Arch. ges. Virusforsch. 44, 153-155 (1974).
Beginning 72 h after infection, animals are treated intravaginally twice a day for 5 days with 0.2 ml of a gel containing one of the following: i) alpha interferon B1 D2 B3 B4 at 1.5×10^6 units/kg; ii) Liposome-encapsulated MTP-PE at 1 mg/kg and iii) a mixture of both. Guinea pigs receiving placebo treatment are given a gel without active ingredients.

[3] = Body distribution of liposomes following i.v. administration; format: in vivo; conditions: rodents
Protocol: Alpha interferon is diluted in calcium and magnesium free PBS, and 2.5 ml is used to reconstitute 250 mg lyophilized synthetic lipids (POPC/OOPS, 7:3 molar ratio) containing 1 mg MTP-PE. This mixture is vigorously shaken in a Vortex mixer for 2 minutes and allowed to stand for 30 minutes prior to revortexing and the addition of another 2.5 ml of PBS. It is found (using I^125 labelled alpha interferon) that approximately 20% of the interferon is bound to liposomes following this reconstitution procedure. Liposomes prepared in this manner have the same physical properties as liposomes containing only MTP-PE and appear to follow the same body distribution profile following i.v. administration in rodents. Approximately 2-3 times more MTP-PE and interferon reach the lung when both substances are incorporated into liposomes as compared to unencapsulated forms.

SMILES: CCCCCCCCCCCCCCCC(=O)OC[C@H](COP(=O)([O-])OCCNC(=O)[C@H](C)NC(=O)CC[C@@H](NC(=O)[C@H](C)NC(=O)[C@@H](C)O[C@H]1[C@H](O)[C@@H](CO)O[C@@H](O)[C@@H]1NC(C)=O)C(N)=O)OC(=O)CCCCCCCCCCCCCCC.[Na+] [MTP-PE, N-acetyl-muramyl-L-alanyl-D-isoglutaminyl-L-alanine-2-(1,2-di-palmitoyl-sn-glycero-3-hydroxyphosphoryloxy)-ethylamide-sodium salt]
- % Cytotoxicity ([1]; MTP-PE alone 0.01 μg/ml): 0%
- % Cytotoxicity ([1]; MTP-PE alone 0.03 μg/ml): 7%
- % Cytotoxicity ([1]; MTP-PE alone 0.1 μg/ml): 10%
- Mean Lesion Score ± Standard Error ([2]; day 3 after infection (start of treatment), gel intravaginally twice a day for 5 days, interferon 1.5×10^6 units/kg, liposome-encapsulated MTP-PE 1 mg/kg): 1.9 ± 0.23
- Mean Lesion Score ± Standard Error ([2]; day 5 after infection, same treatment): 2.8 ± 1.15
- Mean Lesion Score ± Standard Error ([2]; day 7 after infection, same treatment): 4.3 ± 1.32
- Mean Lesion Score ± Standard Error ([2]; day 10 after infection, same treatment): 4.0 ± 1.93
- Mean Lesion Score ± Standard Error ([2]; day 12 after infection, same treatment): 4.3 ± 1.42
- Mean Lesion Score ± Standard Error ([2]; day 14 after infection, same treatment): 4.3 ± 1.42
- Mean Lesion Score ± Standard Error ([2]; day 17 after infection, same treatment): 3.0 ± 1.60
- amount reaching the lung, both substances incorporated into liposomes as compared to unencapsulated forms [3]: 2-3 times
